Data taken from patent US8957062B2, “Substituted cyclopropyl compounds, compositions containing such compounds and methods of treatment” (Merck Sharp & Dohme Corp., priority 2011, dated 2015).

target: T1, human GPR119 (Homo sapiens, UniProt Q8TDV5); experiment: Measurement of GPR119 signaling (cAMP assay) in cells stably transfected with human GPR119; assay type: cell-based; details: cAMP stimulation; read-out: GPR119 HumC EC50
T1 sequence (Q8TDV5 1-308 limits assumed): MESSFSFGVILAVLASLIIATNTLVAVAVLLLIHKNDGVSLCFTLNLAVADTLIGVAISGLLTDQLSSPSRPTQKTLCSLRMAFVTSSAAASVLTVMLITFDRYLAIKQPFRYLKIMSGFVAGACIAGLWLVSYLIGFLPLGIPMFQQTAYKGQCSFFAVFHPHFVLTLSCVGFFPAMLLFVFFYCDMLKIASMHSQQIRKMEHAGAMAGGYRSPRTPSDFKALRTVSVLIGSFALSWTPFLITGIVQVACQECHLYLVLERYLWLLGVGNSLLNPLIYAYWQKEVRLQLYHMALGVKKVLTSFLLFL
Procedure: Measurement of GPR119 Signaling (Cyclic AMP (cAMP) Assay)
The adenylate cyclase assay was constructed following the LANCE™ cAMP Kit (Perkin Elmer, AD0264) instructions.
The reaction was stopped by incubating with the supplied detection buffer containing the europium chelate of the Eu-SA/Biotin-cAMP tracer for 3 hours. The assay was performed in duplicate in a 384 well plate for duplicate plates and fluorescence was measured at 665 nm. Basal activity was determined using a DMSO control and maximum response was defined as cAMP stimulation produced by an internal agonist control. Standard cAMP concentrations were assayed concurrently for conversion of fluorescence signal to cAMP level. The data was analyzed using 4-parameter curve fit in Microsoft Excel.
Measurement of GPR119 Signaling (cAMP Homogenous Time Resolved Fluorescence (HTRF) Assay)
Chinese hamster ovary (CHO) cell lines stably transfected with the permissive guanine nucleotide binding protein alpha 15 (Gα15) and murine GPR119 were maintained in DMEM media containing FBS, penicillin-streptomycin, puromycin, and G418 (geneticin). […] Agonist activation of the GPR119 receptor was measured in receptor transfected cells described above, treated with compounds of this invention, using a commercial homogenous time resolved fluorescence (HTRF) kit for measurement of cAMP (CisBio, Bedford, Mass.). The assay was performed in 96-well half-volume plates (murine) or 384-well plates (human) following the manufacturers instructions. Briefly, suspended cells were incubated with a dose titration of test compound at RT for 60 min, lysed, and incubated with HTRF reagents for an additional 60 min. The plate was read using an Envision multilabel reader (Perkin Elmer) adjusted to read time resolved fluorescence and the cAMP concentrations were extrapolated from a cAMP calibration curve. […] The concentration of test compound required to stimulate a half-maximal response (EC50), and efficacy as compared to an internal agonist control, was determined from a sigmoidal 4-parameter curve fit of the resulting plot of normalized activity versus compound concentration.

Row | EC50 [nM] | SMILES
1 | 2.6 | COCc1noc(N2CCC([C@H]3C[C@H]3CCOc3ccc(CC(=O)N4CCC4)c(Cl)c3)CC2)n1 [Example 104]
2 | 0.6 | CC(C)c1noc(N2CCC([C@H]3C[C@H]3CCOc3cc(F)c(CC(=O)N(C)C)cc3F)CC2)n1 [Example 75]
3 | 9.5 | CC1(O)CN(C(=O)Cc2ccc(OCC[C@@H]3C[C@@H]3C3CCN(C(=O)OC4(C)CC4)CC3)cc2F)C1 [Example 64]
4 | 5.2 | COCc1noc(N2CCC([C@H]3C[C@H]3CCOc3ccc(CC(=O)N(C)C)c(C)c3)CC2)n1 [Example 107]

same assay, conditions: stated in the example text; cAMP stimulation, human GPR119; read-out: GPR119 Human EC50

Row | EC50 [nM] | SMILES
5 | 9.2 | CCc1nc(N2CCC([C@H]3C[C@H]3CCOc3ccc(S(C)(=O)=O)cn3)CC2)no1 [Example 233, 2-(2-{(1S,2R)-2-[1-(5-ethyl-1,2,4-oxidiazol-5-yl)piperidin-4-yl]cyclopropyl}ethoxy)-5-(methylsulfonyl)pyridine]
6 | 0.96 | CC(C)c1noc(N2CCC([C@H]3C[C@H]3CCOc3cc(F)c(CC(=O)N4CC(O)C4)c(F)c3)CC2)n1 [Example 108, 1-[(2,6-difluoro-4-{2-[(1S,2R)-2-{1-[3-(1-methylethyl)-1,2,4-oxadiazol-5-yl]piperidin-4-yl}cyclopropyl]ethoxy}phenyl)acetyl]azetidin-3-ol]
7 | 5.4 | Cc1cc(OCC[C@@H]2C[C@@H]2C2CCN(C(=O)OC3(C)CC3)CC2)ccc1CC(=O)N1CCC1 [Example 60, 1-methylcyclopropyl-4-((1R,2S)-2-{2-[4-(2-azetidin-1-yl-2-oxoethyl)-3-methylphenoxy]ethyl}cyclopropyl)piperidine-1-carboxylate]
8 | 1.4 | COCc1noc(N2CCC([C@H]3C[C@H]3CCOc3cc(F)c(CC(=O)N4CC(F)C4)c(F)c3)CC2)n1 [Example 116, 4-[(1R,2S)-2-(2-{3,5-difluoro-4-[2-(3-fluoroazetidin-1-yl)-2-oxoethyl]phenoxy}ethyl)cyclopropyl]-1-[3-(methoxymethyl)-1,2,4-oxadiazol-5-yl]piperidine]
9 | 1 | CC1(OC(=O)N2CCC([C@H]3C[C@H]3CCOc3ccc(-n4cnnn4)cc3)CC2)CC1 [Example 2, 1-methylcyclopropyl 4-((1R,2S)-2-(2-(4-(1H-tetrazol-1-yl)phenoxy)ethyl)cyclopropyl)piperidine-1-carboxylate]
10 | 11.8 | O=C(CC1CCCCC1)N1CCC([C@H]2C[C@H]2CCOc2ccc(-n3cnnn3)cc2)CC1 [Example 77, 1-(cyclohexylacetyl)-4-((1R,2S)-2-{2-[4-(1H-tetrazol-1-yl)phenoxy]ethyl}cyclopropyl)piperidine]
11 | 0.9 | COCc1noc(N2CCC([C@@H]3C[C@@H]3CCOc3ccc(S(C)(=O)=O)cc3F)CC2)n1 (stereo in doubt) [Example 220, 4-((1S,2R)-2-{2-[2-fluoro-4-(methylsulfonyl)phenoxy]ethyl}cyclopropyl)-1-[3-(methoxymethyl)-1,2,4-oxadiazol-5-yl]piperidine]
12 | 34 | COC(=O)N1CCC([C@H]2C[C@H]2CCOc2cc(C#N)nc(C)n2)CC1 [Example 44]

same assay, conditions: table column; cAMP stimulation, human GPR119; read-out: GPR119 Human EC50

Row | SMILES | EC50 [nM]
13 | CC(C)(C)COC(=O)N1CCC([C@H]2C[C@H]2CCOc2ccc(S(C)(=O)=O)c(F)c2)CC1 [Example 41] | 0.4
14 | CC(C)(C)OC(=O)N1CCC([C@H]2C[C@H]2CCOc2cc(F)c(C(=O)C3CC3)c(F)c2)CC1 [Example 52] | 0.2
15 | CC(C)(C)OC(=O)N1CCC([C@H]2C[C@H]2CCOc2cc(F)c(S(C)(=O)=O)c(F)c2)CC1 [Example 38] | 12
16 | CS(=O)(=O)c1ccc(OCC[C@@H]2C[C@@H]2C2CCN(c3noc(C4CCC4)n3)CC2)nc1 [Example 241] | 4
17 | COCCc1noc(N2CCC([C@H]3C[C@H]3CCOc3ncc(-n4cnnn4)cc3C)CC2)n1 [Example 228] | 2
18 | CC1(OC(=O)N2CCC([C@H]3C[C@H]3CCOc3ccc(S(C)(=O)=O)cn3)CC2)CCC1 [Example 21] | 0.6
19 | CS(=O)(=O)c1ccc(OCC[C@@H]2C[C@@H]2C2CCN(C(=O)CC3CC4C=CC3C4)CC2)nc1 (stereo partly drawn) [Example 90] | 16
20 | CC1(OC(=O)N2CCC([C@H]3C[C@H]3CCOc3ccc(S(=O)(=O)C4CC4)cc3)CC2)CC1 [Example 37] | 16
21 | Cc1nc(C#N)cc(OCC[C@@H]2C[C@@H]2C2CCN(C(=O)OC(C)(C)C)CC2)n1 [Example 47] | 0.2
22 | CS(=O)(=O)c1ccc(OCC[C@@H]2C[C@@H]2C2CCN(C(=O)CC3CCC3)CC2)nc1 [Example 87] | 13
23 | CS(=O)(=O)c1ccc(OCC[C@@H]2C[C@@H]2C2CCN(c3noc(C4CC4)n3)CC2)nc1 [Example 238] | 22
24 | CCc1noc(N2CCC([C@H]3C[C@H]3CCOc3ccc(S(C)(=O)=O)cn3)CC2)n1 [Example 214] | 3.2
25 | CC(C)c1nc(N2CCC([C@H]3C[C@H]3CCOc3ccc(S(C)(=O)=O)cn3)CC2)no1 [Example 234] | 3.5

Further lines, results first:

Row | EC50 [nM] | SMILES
26 | 0.93 | CC(C)c1noc(N2CCC([C@H]3C[C@H]3CCOc3ccc(CC(=O)N4Cc5cccnc5C4)c(F)c3)CC2)n1 [Example 159]
27 | 3.8 | Cc1cc(CC(=O)N2CC(F)(F)C2)cnc1OCC[C@@H]1C[C@@H]1C1CCN(c2nc(C(C)C)no2)CC1 [Example 260]
28 | 1.1 | CC(C)c1noc(N2CCC([C@H]3C[C@H]3CCOc3ccc(CC(=O)N(C)C4CCOC4)c(F)c3)CC2)n1 (stereo partly drawn) [Example 161]
29 | 2.6 | Cc1nc2c(s1)CN(C(=O)Cc1ccc(OCC[C@@H]3C[C@@H]3C3CCN(c4nc(C(C)C)no4)CC3)cc1F)CC2 [Example 179]
30 | 0.55 | CC(C)c1noc(N2CCC([C@H]3C[C@H]3CCOc3ccc(CC(=O)N4CC(F)(F)C4)c(F)c3)CC2)n1 [Example 147]
31 | 1.5 | CC(C)c1noc(N2CCC([C@H]3C[C@H]3CCOc3ccc(CC(=O)N4CCn5nc(C(F)(F)F)nc5C4)c(F)c3)CC2)n1 [Example 194]
32 | 1.4 | CC(C)c1noc(N2CCC([C@H]3C[C@H]3CCOc3ccc(CC(=O)N4CCCC4)cc3)CC2)n1 [Example 126]
33 | 3.9 | CC(C)c1noc(N2CCC([C@H]3C[C@H]3CCOc3ccc(CC(=O)NCC(F)(F)F)c(F)c3)CC2)n1 [Example 157]
34 | 2.7 | CC(C)c1noc(N2CCC([C@H]3C[C@H]3CCOc3ccc(CC(=O)N4CC(F)(F)C4)cc3)CC2)n1 [Example 132]
35 | 8.2 | CC(C)c1noc(N2CCC([C@H]3C[C@H]3CCOc3ccc(CC(=O)N4CC(C(C)(C)O)C4)c(F)c3)CC2)n1 [Example 149]
36 | 0.88 | CC(C)c1noc(N2CCC([C@H]3C[C@H]3CCOc3ccc(CC(=O)N(C)C4COC4)c(F)c3)CC2)n1 [Example 172]
37 | 8.5 | COC1CN(C(=O)Cc2ccc(OCC[C@@H]3C[C@@H]3C3CCN(c4nc(C(C)C)no4)CC3)cc2)C1 [Example 135]
38 | 5.9 | COCc1noc(N2CCC([C@H]3C[C@H]3CCOc3ccc(CC(=O)N(C)C)c(F)c3)CC2)n1 [Example 201]
39 | 3.6 | CC(C)c1noc(N2CCC([C@H]3C[C@H]3CCOc3ccc(CC(=O)N4CC(C)(O)C4)c(F)c3)CC2)n1 [Example 140]
